# Results as given in article PMC12686966, “Da‐Bu‐Yin‐Wan and Qian‐Zheng‐San Alleviate Parkinson's Disease by Activating the Keap1/Nrf2/HO‐1 Pathway to Positively Regulate Oxidative Stress” (CNS Neuroscience & Therapeutics, 2025).
# Counter-ions that a name gives are not always drawn. Like-named read-outs stand apart in the source and are kept apart here.
# Key:
# [1] = test system: SH-SY5Y cells; assay: Annexin V-PE apoptosis detection (flow cytometry) in MPP+-treated SH-SY5Y cells; format: cell-based, human; settings: Control siRNA; 1 mM MPP+ alone or followed by 4 μg/mL BYQZF 48 h; control cells 1.65%
# Protocol: The experiment used the human neuroblastoma SH‐SY5Y cell line to construct a stable transfected cell line. Cells were grown in a 1:1 MEM/F12 medium blend with added 15% fetal bovine serum for nutritional support. To avoid bacterial contamination, 500 IU/mL of penicillin and 500 μg/mL of streptomycin were incorporated. Cells were cultured at 37°C with 5% CO2 to maintain a pH of 7.2–7.4. The cell passage ratio was 1:2 to 1:4, and medium was replaced every 48–72 h to maintain the cells in the logarithmic growth phase. Routine testing confirmed that the cells were free from mycoplasma, bacterial, and fungal contamination. For cell freezing, a cryopreservation solution consisting of 60% base medium, 30% FBS, and 10% DMSO was used, and cells were stored in liquid nitrogen for long‐term preservation. The human Nrf2 knockdown plasmid, crafted by GeneChem, was used to transfect SH‐SY5Y cells seeded at a concentration of 100,000 cells per milliliter, utilizing the optimal amount of Lipofectamine 3000 (Invitrogen) in accordance with the protocol. 48 h subsequent to transfection, cells were exposed to 1 mM MPP^+ in the culture environment, and subsequently treated with 4 μg/mL BYQZF for another 48 h.
# [2] = mouse, in vivo, po
# Protocol: (§1) 6‐week‐old male C57BL/6J mice (20 ± 2 g; n = 6 per group) were orally administered the herbal decoction (BYQZF) at a dose of 5 g crude drug/kg. The administration volume was 10 mL/kg, and the concentration of the drug solution was 0.5 g/mL. Plasma samples were collected on day 14 after 14 consecutive days of drug administration. […] The supernatant samples were collected after centrifugation (5000 rpm, 10 min) and stored at −80°C immediately until analysis.
# (§2) Each 100 μL plasma aliquot obtained at predetermined intervals was supplemented with 5 μL of internal standard solution (IS, 1 μg/mL) and 10 μL enzymatic hydrolysis cocktail (β‐glucuronidase/sulfatase mixture: 200 U/2 U enzymatic activity). The mixture underwent vortex mixing followed by 1‐h enzymatic digestion at physiological temperature (37°C). Subsequent protein precipitation was achieved through methanol addition (300 μL) with vigorous shaking. After phase separation by centrifugation (5000 rpm, 5 min), the organic supernatant was carefully decanted and subjected to nitrogen‐stream evaporation until completely dry. The residue was then reconstituted in 100 μL of mobile phase consisting of aqueous 0.1% FA‐ACN (v:v = 95:5) using ultrasonic‐assisted dissolution. Prior to UPLC‐MS/MS analysis, the final solution underwent high‐speed clarification centrifugation (13,000 rpm, 10 min) to remove particulate matter. The drug concentration‐time profiles were constructed, and pharmacokinetic parameters were analyzed using DAS 3.2.8 software.
# [3] = Pharmacokinetic study of 10 major BYQZF components in plasma (UPLC-MS/MS); settings: for MRT last: MRT(0-t); for pharmacokinetics in MPTP + BYQZF group compared with BYQZF without MPTP group: p < 0.05
# Protocol: as §1, §2
# [4] = set-up: method as in PMID 28163115; settings: cited from earlier work
# [5] = test system: Nrf2/GPX4 pathway; set-up: method as in PMID 39631720, PMID 27632381; settings: PD models ref 40, 41; cited from earlier work
# [6] = test system: Nrf2/HO-1 pathway; set-up: method as in PMID 27535021; settings: hydrogen peroxide-induced oxidative stress ref 37; cited from earlier work
# [7] = male, C57BL/6J, mouse, plasma, po, 5 g/kg, AUC(0-t), plasma, oral BYQZF 5 g crude drug/kg, group BYQZF (without MPTP), n=6
# [8] = male, C57BL/6J, mouse, plasma, po, 5 g/kg, AUC(0-t), plasma, oral BYQZF 5 g crude drug/kg, group MPTP+BYQZF (PD model mice), n=6
# [9] = male, C57BL/6J, mouse, plasma, po, 5 g/kg, plasma, oral BYQZF 5 g crude drug/kg, group BYQZF (without MPTP), n=6
# [10] = male, C57BL/6J, mouse, plasma, po, 5 g/kg, plasma, oral BYQZF 5 g crude drug/kg, group MPTP+BYQZF (PD model mice), n=6
# [11] = male, C57BL/6J, mouse, plasma, po, 5 g/kg, Cmax, plasma, oral BYQZF 5 g crude drug/kg, group BYQZF (without MPTP), n=6
# [12] = male, C57BL/6J, mouse, plasma, po, 5 g/kg, Cmax, plasma, oral BYQZF 5 g crude drug/kg, group MPTP+BYQZF (PD model mice), n=6
# [13] = plasma, oral BYQZF 5 g crude drug/kg, group BYQZF (without MPTP), n=6
# [14] = plasma, oral BYQZF 5 g crude drug/kg, group MPTP+BYQZF (PD model mice), n=6
molecule,measurement,setting,value
"C[n+]1ccc(-c2ccccc2)cc1 [MPP^+, 1‐Methyl‐4‐phenylpyridinium]",proportion of apoptotic cells,[1],7.95%
O=c1c2cc(O)c(O)cc2oc2cc(O)c([C@@H]3O[C@H](CO)[C@@H](O)[C@H](O)[C@H]3O)c(O)c12 [Mangiferol],pharmacokinetics in MPTP + BYQZF group compared with BYQZF without MPTP group,[2],significantly different
N[C@@H](CCC(=O)O)C(=O)O [L-Glutamic acid],Cmax,"[3]; male, C57BL/6J, mouse, in vivo, po, 5 g/kg",0.0514 ± 0.00766 ng/mL
same,Cmax,"[3]; male, C57BL/6J, mouse, plasma, po, 5 g/kg",0.0146 ± 0.00047 ng/mL
same,AUC(0-t),[3]; [7],0.102 ± 0.0119 ng·h/mL
same,AUC(0-t),[3]; [8],0.0832 ± 0.0112 ng·h/mL
same,MRT last,[3]; [9],4.47 ± 1.61 h
same,MRT last,[3]; [10],4.55 ± 1.19 h
C[C@@H]1O[C@@H](O[C@@H]2[C@@H](O)[C@H](OCCc3ccc(O)c(O)c3)O[C@H](COC(=O)/C=C/c3ccc(O)c(O)c3)[C@H]2O)[C@H](O)[C@H](O)[C@H]1O [Isoacteoside],AUC(0-t),[3]; [7],2.8 ± 0.138 ng·h/mL
same,AUC(0-t),[3]; [8],2.18 ± 0.31 ng·h/mL
same,Cmax,[3]; [11],0.248 ± 0.0148 ng/mL
same,Cmax,[3]; [12],0.185 ± 0.00514 ng/mL
same,MRT last,[3]; [9],7.9 ± 0.47 h
same,MRT last,[3]; [10],8.87 ± 0.83 h
same,pharmacokinetics in MPTP + BYQZF group compared with BYQZF without MPTP group,[3]; oral BYQZF 5 g crude drug/kg,significantly different
O=c1cc[nH]c(=O)[nH]1 [Uracil],AUC(0-t),[3]; [7],0.413 ± 0.0753 ng·h/mL
same,AUC(0-t),[3]; [8],0.166 ± 0.0638 ng·h/mL
same,Cmax,[3]; [11],0.23 ± 0.0219 ng/mL
same,Cmax,[3]; [12],0.0395 ± 0.00762 ng/mL
same,MRT last,[3]; [9],2.01 ± 1.68 h
same,MRT last,[3]; [10],2.89 ± 0.17 h
C[C@H]1[C@H]2[C@H](O[C@@H]3O[C@H](CO)[C@@H](O)[C@H](O)[C@H]3O)OC=C(C(=O)O)[C@H]2C[C@@H]1O [8-Epiloganic acid],pharmacokinetics in MPTP + BYQZF group compared with BYQZF without MPTP group,[2],significantly different
N[C@@H](CC(=O)N[C@@H](CC(=O)O)C(=O)O)C(=O)O [L-beta-aspartyl-L-aspartic acid],pharmacokinetics in MPTP + BYQZF group compared with BYQZF without MPTP group,[3]; oral BYQZF 5 g crude drug/kg,significantly different
same,AUC(0-t),[3]; [13],0.01864 ± 0.00096 ng·h/mL
same,Cmax,[3]; [13],0.02274 ± 0.00024 ng/mL
same,MRT(0-t),[3]; [13],2.02 ± 2.07 h
same,AUC(0-t),[3]; [14],0.01424 ± 0.0026 ng·h/mL
same,Cmax,[3]; [14],0.00887 ± 0.00191 ng/mL
same,MRT(0-t),[3]; [14],2.13 ± 1.32 h
O=c1c(O[C@@H]2O[C@H](CO)[C@H](O)[C@H](O)[C@H]2O)c(-c2ccc(O)c(O)c2)oc2cc(O)cc(O)c12 [Hyperin],pharmacokinetics in MPTP + BYQZF group compared with BYQZF without MPTP group,[3]; oral BYQZF 5 g crude drug/kg,significantly different
same,AUC(0-t),[3]; [13],0.24678 ± 0.01186 ng·h/mL
same,Cmax,[3]; [13],0.03885 ± 0.01016 ng/mL
same,MRT(0-t),[3]; [13],10.94 ± 0.64 h
same,AUC(0-t),[3]; [14],0.17287 ± 0.02918 ng·h/mL
same,Cmax,[3]; [14],0.01989 ± 0.00355 ng/mL
same,MRT(0-t),[3]; [14],12.22 ± 2.29 h
Manninotriose,pharmacokinetics in MPTP + BYQZF group compared with BYQZF without MPTP group,[2],significantly different
OCC1=C[C@@H](O)[C@]2(O[C@@H]3O[C@H](CO)[C@@H](O)[C@H](O)[C@H]3O[C@@H]3O[C@H](CO)[C@@H](O)[C@H](O)[C@H]3O)C=CO[C@@H](O[C@@H]3O[C@H](CO)[C@@H](O)[C@H](O)[C@H]3O)[C@H]12 [Rehmannioside D],spontaneous oxidation of endogenous dopamine,[4],inhibit
C[C@@H]1O[C@@H](O[C@@H]2[C@@H](O)[C@H](OCCc3ccc(O)c(O)c3)O[C@H](CO)[C@H]2OC(=O)/C=C/c2ccc(O)c(O)c2)[C@H](O)[C@H](O)[C@H]1O [Acteoside],Nrf2/GPX4 pathway,[5],activate
O[C@H]1[C@H](O)[C@@H](O)[C@H](O)[C@@H](O)[C@H]1O [Inositol],AUC(0-t),[3]; [7],0.32 ± 0.0658 ng·h/mL
same,AUC(0-t),[3]; [8],0.0615 ± 0.0127 ng·h/mL
same,Cmax,[3]; [11],0.0582 ± 0.0147 ng/mL
same,Cmax,[3]; [12],0.0239 ± 0.00194 ng/mL
same,MRT last,[3]; [9],2.81 ± 0.27 h
same,MRT last,[3]; [10],11.2 ± 1.23 h
O=c1c(O)c(-c2ccccc2)oc2ccccc12 [3-Hydroxyflavone],AUC(0-t),[3]; [7],0.401 ± 0.0765 ng·h/mL
same,AUC(0-t),[3]; [8],0.341 ± 0.0517 ng·h/mL
same,Cmax,[3]; [11],0.105 ± 0.0146 ng/mL
same,Cmax,[3]; [12],0.0291 ± 0.00788 ng/mL
same,MRT last,[3]; [9],5.17 ± 3.67 h
same,MRT last,[3]; [10],13 ± 1.72 h
same,pharmacokinetics in MPTP + BYQZF group compared with BYQZF without MPTP group,[3]; oral BYQZF 5 g crude drug/kg,significantly different
COc1ccc2cc3[n+](cc2c1OC)CCc1cc2c(cc1-3)OCO2 [Berberine hydrochloride],Nrf2/HO-1 pathway,[6],can activate
